Measurements reported in the supplement of paper PMC10307832.

compound: O=C(c1cc(Cc2n[nH]c(=O)c3ccccc23)ccc1F)N1CCN(C(=O)C2CC2)CC1 [Olaparib]; experiment: relative viability (nuclei count vs DMSO), 5 days (fraction); higher = more cells survive; details: 2.53 µM
Procedure, shortened: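 Viability here means nuclei in treated wells divided by nuclei in vehicle wells, reported as the median across plates. Only plates with control CV below 25% and at least one doubling passed. Lung cancer cell lines in 1536-well plates were exposed to five √10-spaced library-drug doses for 5 days and counted from 4× Hoechst images in MetaXpress.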

Cell Line | relative viability
NCI-H647 | 0.97
NCI-H650 | 0.801
NCI-H661 | 0.925
NCI-H727 | 0.783
NCI-H838 | 0.955
NCI-H1299 | 1.01
NCI-H1355 | 0.981
NCI-H1395 | 0.663
NCI-H1437 | 0.927
NCI-H1563 | 1.01
NCI-H1623 | 0.917
NCI-H1650 | 0.785
NCI-H1651 | 0.755
NCI-H1666 | 0.821
NCI-H1703 | 0.983
NCI-H1734 | 0.862
NCI-H1755 | 1.05
NCI-H1792 | 0.773
NCI-H1915 | 0.779
NCI-H1944 | 0.656
NCI-H1975 | 0.912

Cell Line | relative viability
NCI-H1993 | 0.978
NCI-H2009 | 0.94
NCI-H2023 | 0.901
NCI-H2085 | 0.983
NCI-H2087 | 0.944
NCI-H2126 | 0.982
NCI-H2170 | 0.971
NCI-H2228 | 0.777
NCI-H2342 | 0.936
NCI-H2347 | 0.877
NCI-H2405 | 0.945
NCI-H3122 | 0.946
PC-3 [JPC-3] | 1.12
PC-14 | 0.954
RERF-LC-KJ | 0.947
SK-LU-1 | 0.926
SK-MES-1 | 0.96
SW 900 | 0.715
SW 1573 | 0.825
UMC-11 | 0.758

same assay, conditions: 8 µM

Cell Line | relative viability
201T | 1.01
A549 | 0.681
A-427 | 0.782
ABC-1 | 0.932
BEN | 1.03
CAL-12T | 0.888
COR-L23 | 0.579
COR-L 105 | 0.785
Calu-6 | 0.789
ChaGo-K-1 | 0.788
EBC-1 | 0.752
EKVX | 1.03
EMC-BAC-2 | 0.849
EPLC-272H | 0.878
H3255 | 0.924
HARA | 0.811
HCC-15 | 0.878
HCC-44 | 1.08
HCC-78 | 0.861
HCC-366 | 0.862
HCC-827 | 0.966
HOP-62 | 0.722
IA-LM | 0.79
LC-2-ad | 0.866
LCLC-97TM1 | 0.913
LCLC-103H | 0.862
LK-2 | 1.01

Cell Line | relative viability
LOU-NH91 | 0.962
LU99A | 0.532
LXF-289 | 1.03
NCI-H23 | 0.517
NCI-H322M | 0.815
NCI-H358 | 0.849
NCI-H441 | 0.76
NCI-H460 | 0.657
NCI-H520 | 0.609
NCI-H522 | 0.703
NCI-H596 | 0.792
NCI-H647 | 0.879
NCI-H650 | 0.744
NCI-H661 | 0.836
NCI-H727 | 0.736
NCI-H838 | 0.945
NCI-H1299 | 0.995
NCI-H1355 | 0.91
NCI-H1395 | 0.538
NCI-H1437 | 0.814
NCI-H1563 | 0.912
NCI-H1623 | 0.791
NCI-H1648 | 1.2
NCI-H1650 | 0.871
NCI-H1651 | 0.494
NCI-H1666 | 0.838
NCI-H1703 | 0.974

Cell Line | relative viability
NCI-H1734 | 0.726
NCI-H1755 | 0.939
NCI-H1792 | 0.605
NCI-H1915 | 0.559
NCI-H1944 | 0.646
NCI-H1975 | 0.901
NCI-H1993 | 1.01
NCI-H2009 | 0.9
NCI-H2023 | 0.685
NCI-H2085 | 0.959
NCI-H2087 | 0.662
NCI-H2126 | 1.01
NCI-H2170 | 0.915
NCI-H2228 | 0.609
NCI-H2342 | 0.941
NCI-H2347 | 0.765
NCI-H2405 | 1.02
NCI-H3122 | 0.865
PC-3 [JPC-3] | 0.989
PC-14 | 0.682
RERF-LC-KJ | 0.971
SK-LU-1 | 0.735
SK-MES-1 | 0.776
SW 900 | 0.716
SW 1573 | 0.633
UMC-11 | 0.492

same assay, conditions: 8 µM; anchor plate

Cell Line | relative viability
201T | 0.835
A549 | 0.361
A-427 | 0.713
ABC-1 | 0.847
BEN | 1.06
CAL-12T | 0.706
COR-L23 | 0.353
COR-L 105 | 0.697
Calu-6 | 0.584
ChaGo-K-1 | 0.422
EBC-1 | 0.703
EKVX | 0.884
EMC-BAC-2 | 0.477
EPLC-272H | 0.832
H3255 | 0.579
HARA | 0.788
HCC-15 | 0.731
HCC-44 | 0.963
HCC-78 | 0.831
HCC-366 | 0.352
HCC-827 | 0.61
HOP-62 | 0.384
IA-LM | 0.853
LC-2-ad | 0.697
LCLC-97TM1 | 0.374
LCLC-103H | 0.749

Cell Line | relative viability
LK-2 | 0.803
LOU-NH91 | 0.914
LU99A | 0.266
LXF-289 | 1.07
NCI-H23 | 0.344
NCI-H322M | 0.745
NCI-H358 | 0.63
NCI-H441 | 0.525
NCI-H460 | 0.441
NCI-H520 | 0.347
NCI-H522 | 0.679
NCI-H596 | 0.711
NCI-H647 | 0.542
NCI-H650 | 0.378
NCI-H661 | 0.753
NCI-H727 | 0.741
NCI-H838 | 0.767
NCI-H1299 | 0.968
NCI-H1355 | 0.754
NCI-H1395 | 0.479
NCI-H1437 | 0.617
NCI-H1648 | 0.818
NCI-H1650 | 0.812
NCI-H1651 | 0.188
NCI-H1666 | 0.738
NCI-H1703 | 0.453

Cell Line | relative viability
NCI-H1734 | 0.635
NCI-H1755 | 0.881
NCI-H1792 | 0.419
NCI-H1915 | 0.269
NCI-H1944 | 0.419
NCI-H1975 | 0.789
NCI-H1993 | 1.12
NCI-H2009 | 0.679
NCI-H2023 | 0.478
NCI-H2085 | 0.769
NCI-H2087 | 0.601
NCI-H2126 | 0.907
NCI-H2170 | 0.599
NCI-H2228 | 0.719
NCI-H2342 | 0.452
NCI-H2347 | 0.583
NCI-H2405 | 0.853
NCI-H3122 | 0.607
PC-3 [JPC-3] | 1.1
PC-14 | 0.285
RERF-LC-KJ | 0.89
SK-LU-1 | 0.44
SK-MES-1 | 0.731
SW 900 | 0.905
SW 1573 | 0.512
UMC-11 | 0.373
